Results: PubChem BioAssay AID256 (DTP/NCI, 2004)
Values joined by “and” are separate entries in the source; they are usually repeats but may differ in a detail not shown here. Equal values may be shown once. Toxic doses and inconclusive results are not listed. How the source made its calls: active means survival T/C of 150% or more; inactive means T/C below 125% in these data.

System: CD2F1 mice, L1210 leukemia ip, survival T/C
Experiment: NCI In Vivo Anticancer Drug Screen. Data for tumor model L1210 Leukemia (intraperitoneal) in CD2F1 (CDF1) mice
Conditions: higher = longer survival
Summary of the method: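 Compound-dosed mice with transplantable tumor versus matched vehicle controls; endpoint ratio T/C reported.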

[1] = endpoint: mean survival time, dose: 100.0 mg/kg/injection, schedule: Q04DX003 (ip), vehicle: saline with Tween-80
[2] = endpoint: mean survival time, dose: 200.0 mg/kg/injection, schedule: Q04DX003 (ip), vehicle: saline with Tween-80
[3] = endpoint: mean survival time, dose: 400.0 mg/kg/injection, schedule: Q04DX003 (ip), vehicle: saline with Tween-80
[4] = endpoint: mean survival time, dose: 6.25 mg/kg/injection, schedule: Q01DX009 (ip), vehicle: saline with Tween-80
[5] = endpoint: mean survival time, dose: 12.5 mg/kg/injection, schedule: Q01DX009 (ip), vehicle: saline with Tween-80
[6] = endpoint: mean survival time, dose: 25.0 mg/kg/injection, schedule: Q01DX009 (ip), vehicle: saline with Tween-80
[7] = endpoint: mean survival time, dose: 50.0 mg/kg/injection, schedule: Q01DX009 (ip), vehicle: saline with Tween-80
[8] = endpoint: mean survival time, dose: 50.0 mg/kg/injection, schedule: Q01DX009 (ip), vehicle: saline
[9] = endpoint: mean survival time, dose: 100.0 mg/kg/injection, schedule: Q01DX009 (ip), vehicle: saline with Tween-80
[10] = endpoint: mean survival time, dose: 200.0 mg/kg/injection, schedule: Q01DX009 (ip), vehicle: saline with Tween-80
[11] = endpoint: mean survival time, dose: 75.0 mg/kg/injection, schedule: Q01DX001 (ip), vehicle: saline
[12] = endpoint: mean survival time, dose: 100.0 mg/kg/injection, schedule: Q01DX001 (ip), vehicle: saline with Tween-80
[13] = endpoint: mean survival time, dose: 200.0 mg/kg/injection, schedule: Q01DX001 (ip), vehicle: saline with Tween-80
[14] = endpoint: mean survival time, dose: 400.0 mg/kg/injection, schedule: Q01DX001 (ip), vehicle: saline with Tween-80
[15] = endpoint: mean survival time, dose: 400.0 mg/kg/injection, schedule: Q01DX009 (ip), vehicle: saline with Tween-80
[16] = endpoint: mean survival time, dose: 100.0 mg/kg/injection, schedule: Q01DX001 (ip), vehicle: saline
[17] = endpoint: mean survival time, dose: 200.0 mg/kg/injection, schedule: Q01DX001 (ip), vehicle: saline
[18] = endpoint: mean survival time, dose: 400.0 mg/kg/injection, schedule: Q01DX001 (ip), vehicle: saline
[19] = endpoint: mean survival time, dose: 50.0 mg/kg/injection, schedule: Q01DX009 (ip), vehicle: other
[20] = endpoint: mean survival time, dose: 100.0 mg/kg/injection, schedule: Q01DX009 (ip), vehicle: other

Measured: T/C

CN(C)c1ccc(N=Nc2ccc(C(=O)Cl)cc2)cc1
inactive: endpoint: mean survival time, dose: 50.0 mg/kg/injection, schedule: Q01DX009 (ip), vehicle: Klucel (hydroxypropylcellulose) (HPC) 98 % of control | endpoint: mean survival time, dose: 100.0 mg/kg/injection, schedule: Q01DX009 (ip), vehicle: Klucel (hydroxypropylcellulose) (HPC) 91 % of control | endpoint: mean survival time, dose: 200.0 mg/kg/injection, schedule: Q01DX009 (ip), vehicle: Klucel (hydroxypropylcellulose) (HPC) 94 % of control

CCOC(=O)CC1CC(CN)(C(=O)OCC)CO1 (stereo unspecified)
inactive: [1] 95 % of control | [2] 95 % of control | [3] 100 % of control

CCN(CC)CCC(=O)c1ccccc1
inactive: endpoint: mean survival time, dose: 3.12 mg/kg/injection, schedule: Q01DX009 (ip), vehicle: saline with Tween-80 100 % of control | endpoint: mean survival time, dose: 3.12 mg/kg/injection, schedule: Q01DX009 (ip), vehicle: suspension in saline 96 % of control | [4] 103 % of control | endpoint: mean survival time, dose: 6.25 mg/kg/injection, schedule: Q01DX009 (ip), vehicle: suspension in saline 95 % of control | [5] 102 % of control | endpoint: mean survival time, dose: 12.5 mg/kg/injection, schedule: Q01DX009 (ip), vehicle: saline 90 % of control | endpoint: mean survival time, dose: 12.5 mg/kg/injection, schedule: Q01DX009 (ip), vehicle: suspension in saline 96 % of control | [6] 103 % of control | endpoint: mean survival time, dose: 25.0 mg/kg/injection, schedule: Q01DX009 (ip), vehicle: saline 94 % of control | endpoint: mean survival time, dose: 25.0 mg/kg/injection, schedule: Q01DX009 (ip), vehicle: suspension in saline 106 % of control | [7] 101 % of control | [8] 92 % of control | endpoint: mean survival time, dose: 50.0 mg/kg/injection, schedule: Q01DX009 (ip), vehicle: suspension in saline 106 % of control | [9] 93 % of control

CCCCCC(C)(C#N)CCCCC
inactive: [9] 105 % of control | [10] 103 % of control

CC(=O)n1c(COS(C)(=O)=O)nc2ccccc21
inactive: endpoint: mean survival time, dose: 25.0 mg/kg/injection, schedule: Q01DX001 (ip), vehicle: carboxymethylcellulose (CMC) 105 % of control | endpoint: mean survival time, dose: 50.0 mg/kg/injection, schedule: Q01DX001 (ip), vehicle: carboxymethylcellulose (CMC) 103 % of control

C/C(Cl)=C/C(=O)O.[Ag]
inactive: [11] 93 % of control

CC1(C)COC(c2ccccc2Br)=N1
inactive: [12] 109 % of control | [13] 101 % of control | [14] 101 % of control

CCCCc1c(N)nc(N)nc1N
inactive: endpoint: mean survival time, dose: 18.7 mg/kg/injection, schedule: Q01DX001 (ip), vehicle: saline with Tween-80 104 % of control | endpoint: mean survival time, dose: 37.5 mg/kg/injection, schedule: Q01DX001 (ip), vehicle: saline with Tween-80 100 % of control | endpoint: mean survival time, dose: 75.0 mg/kg/injection, schedule: Q01DX001 (ip), vehicle: saline with Tween-80 109 % of control

Cc1cc2nc(CC(O)(C(F)(F)F)C(F)(F)F)oc2cc1C
inactive: [9] 91 % of control | [10] 92 % of control | [15] 96 % of control

O=Cc1nccc2c1[nH]c1ccccc12
inactive: [1] 95 % of control | [2] 104 % of control | [3] 100 % of control

N#CC1=C(N)CCC1
inactive: [4] 97 % of control | [5] 95 % of control | [6] 93 % of control | [1] 102 % of control | [3] 97 % of control

NC(=O)C(N)CCO (stereo unspecified)
inactive: endpoint: mean survival time, dose: 75.0 mg/kg/injection, schedule: Q01DX009 (ip), vehicle: saline 92 % of control | endpoint: mean survival time, dose: 75.0 mg/kg/injection, schedule: Q04DX003 (ip), vehicle: saline 97 % of control | endpoint: mean survival time, dose: 150.0 mg/kg/injection, schedule: Q01DX009 (ip), vehicle: saline 102 % of control | endpoint: mean survival time, dose: 150.0 mg/kg/injection, schedule: Q04DX003 (ip), vehicle: saline 95 % of control | endpoint: mean survival time, dose: 300.0 mg/kg/injection, schedule: Q01DX009 (ip), vehicle: saline 97 % of control | endpoint: mean survival time, dose: 300.0 mg/kg/injection, schedule: Q04DX003 (ip), vehicle: saline 95 % of control

CCCCCCC[CH2][Sn]1([CH2]CCCCCCC)[O]CC2OC(n3cc(C)c(=O)[nH]c3=O)CC2[O]1 (stereo unspecified)
inactive: endpoint: mean survival time, dose: 12.5 mg/kg/injection, schedule: Q01DX005 (ip), vehicle: other 94 % of control | endpoint: mean survival time, dose: 25.0 mg/kg/injection, schedule: Q01DX005 (ip), vehicle: other 100 % of control | endpoint: mean survival time, dose: 50.0 mg/kg/injection, schedule: Q01DX005 (ip), vehicle: other 114 % of control

CC(C)C1=CC2=CCC3C(C)(C(=O)O)CCCC3(C)C2CC1 (stereo unspecified)
inactive: [6] 103 % of control | [7] 98 % of control | [12] 98 % of control | [9] 96 % of control | [13] 95 % of control | [10] 96 % of control | [14] 102 % of control | [15] 97 % of control

CC(=O)ON=C1C=CC(=C(C#N)c2ccccc2)C=C1
inactive: endpoint: mean survival time, dose: 50.0 mg/kg/injection, schedule: Q01DX001 (ip), vehicle: saline 96 % of control | [7] 97 % of control and 101 % of control | [16] 98 % of control | [9] 98 % of control and 100 % of control | [1] 91 % of control | [17] 95 % of control | [10] 93 % of control and 101 % of control | [2] 95 % of control | [18] 90 % of control | [3] 105 % of control

O=C(NNc1ccccc1OCc1ccccc1)C(F)(F)F
inactive: [1] 102 % of control | [2] 103 % of control | [3] 103 % of control

CCCCCC(C)NCCO (stereo unspecified)
inactive: [11] 98 % of control

C/C(=N\NC(=S)N1CC2CCC(CC2)C1)c1nccs1
inactive: endpoint: median survival time, dose: 3.13 mg/kg/injection, schedule: Q01DX009 (ip), vehicle: saline with Tween-80 103 % of control | endpoint: median survival time, dose: 6.25 mg/kg/injection, schedule: Q01DX009 (ip), vehicle: saline with Tween-80 112 % of control | endpoint: median survival time, dose: 12.5 mg/kg/injection, schedule: Q01DX009 (ip), vehicle: saline with Tween-80 113 % of control and 114 % of control and 110 % of control | endpoint: median survival time, dose: 25.0 mg/kg/injection, schedule: Q01DX009 (ip), vehicle: saline with Tween-80 115 % of control and 104 % of control | endpoint: median survival time, dose: 50.0 mg/kg/injection, schedule: Q01DX009 (ip), vehicle: saline with Tween-80 120 % of control and 95 % of control and 98 % of control

NC(=S)NN=C1CCC(=NNC(N)=S)CC1
inactive: [19] 94 % of control | [20] 91 % of control | endpoint: mean survival time, dose: 250.0 mg/kg/injection, schedule: Q01DX009 (ip), vehicle: other 89 % of control

NC(=S)N/N=C/c1cccnc1
inactive: [8] 109 % of control | endpoint: mean survival time, dose: 100.0 mg/kg/injection, schedule: Q01DX009 (ip), vehicle: saline 101 % of control | endpoint: mean survival time, dose: 200.0 mg/kg/injection, schedule: Q01DX009 (ip), vehicle: saline 106 % of control

O=C1Nc2ccc([N+](=O)[O-])c3c(C(=O)O)ccc1c23
inactive: [1] 98 % of control | [2] 104 % of control | [3] 101 % of control

COc1cc(N=Nc2ccc(C(=O)O)cc2)ccc1N(CCCl)CCCl
inactive: endpoint: mean survival time, dose: 25.0 mg/kg/injection, schedule: Q04DX003 (ip), vehicle: Klucel (hydroxypropylcellulose) (HPC) 106 % of control and 109 % of control | endpoint: mean survival time, dose: 50.0 mg/kg/injection, schedule: Q04DX003 (ip), vehicle: Klucel (hydroxypropylcellulose) (HPC) 106 % of control and 112 % of control | endpoint: mean survival time, dose: 100.0 mg/kg/injection, schedule: Q04DX003 (ip), vehicle: Klucel (hydroxypropylcellulose) (HPC) 113 % of control and 98 % of control

CNC(=S)SCCC(=O)O
inactive: endpoint: mean survival time, dose: 100.0 mg/kg/injection, schedule: Q04DX002 (ip), vehicle: saline with Tween-80 113 % of control | endpoint: mean survival time, dose: 200.0 mg/kg/injection, schedule: Q04DX002 (ip), vehicle: saline with Tween-80 102 % of control | endpoint: mean survival time, dose: 400.0 mg/kg/injection, schedule: Q04DX002 (ip), vehicle: saline with Tween-80 102 % of control

CC1(C)/C(=N/Nc2ccc([N+](=O)[O-])cc2[N+](=O)[O-])CCc2ccccc21
inactive: endpoint: mean survival time, dose: 12.5 mg/kg/injection, schedule: Q01DX009 (ip), vehicle: other 94 % of control | endpoint: mean survival time, dose: 25.0 mg/kg/injection, schedule: Q01DX009 (ip), vehicle: other 97 % of control | [19] 90 % of control | [20] 94 % of control | endpoint: mean survival time, dose: 200.0 mg/kg/injection, schedule: Q01DX009 (ip), vehicle: other 90 % of control

COC(=O)CC(CC(=O)OC)N1CCCC1
inactive: [16] 102 % of control | [17] 102 % of control | [18] 102 % of control
